The results in this text go back to PubChem BioAssay AID330 (DTP/NCI, 2004).

Each structure is given as a SMILES string. “And” between values parts separate entries of the source, which are not always exact repeats. Identical values can stand only once. Toxic doses and inconclusive results are not listed.

The assay deals with P388 leukemia ip, CD2F1 mice, survival T/C. In words: NCI In Vivo Anticancer Drug Screen. Data for tumor model P388 Leukemia (intraperitoneal) in CD2F1 (CDF1) mice. The note with it: endpoint: median survival time, higher = longer survival. The gist of the method:
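Mice carrying the transplanted tumor received test compound or vehicle. Survival was recorded in each group, and the value is the treated-group measurement divided by that of the vehicle-treated control group.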

Setting [1] is: dose: 25.0 mg/kg/injection, schedule: Q01DX009 (ip), vehicle: other.
Where [2] appears, read: dose: 50.0 mg/kg/injection, schedule: Q01DX009 (ip), vehicle: other.
[3] abbreviates: dose: 50.0 mg/kg/injection, schedule: Q04DX003 (ip), vehicle: other.
Setting [4] is: dose: 50.0 mg/kg/injection, schedule: Q01DX005 (ip), vehicle: Klucel (hydroxypropylcellulose) (HPC).
Where [5] appears, read: dose: 100.0 mg/kg/injection, schedule: Q01DX005 (ip), vehicle: Klucel (hydroxypropylcellulose) (HPC).
Setting [6] is: dose: 200.0 mg/kg/injection, schedule: Q01DX005 (ip), vehicle: Klucel (hydroxypropylcellulose) (HPC).
Setting [7] is: dose: 50.0 mg/kg/injection, schedule: Q01DX005 (ip), vehicle: saline with Tween-80.
[8] abbreviates: dose: 100.0 mg/kg/injection, schedule: Q01DX005 (ip), vehicle: saline with Tween-80.
Where [9] appears, read: dose: 50.0 mg/kg/injection, schedule: Q01DX009 (ip), vehicle: Klucel (hydroxypropylcellulose) (HPC).
Where [10] appears, read: dose: 100.0 mg/kg/injection, schedule: Q01DX009 (ip), vehicle: Klucel (hydroxypropylcellulose) (HPC).
Setting [11] is: dose: 200.0 mg/kg/injection, schedule: Q01DX009 (ip), vehicle: Klucel (hydroxypropylcellulose) (HPC).
The mark [12] stands for this setting: dose: 100.0 mg/kg/injection, schedule: Q01DX001 (ip), vehicle: Klucel (hydroxypropylcellulose) (HPC).
Where [13] appears, read: dose: 200.0 mg/kg/injection, schedule: Q01DX001 (ip), vehicle: Klucel (hydroxypropylcellulose) (HPC).
[14] abbreviates: dose: 60.0 mg/kg/injection, schedule: Q01DX005 (ip), vehicle: saline with Tween-80.
[15] abbreviates: dose: 120.0 mg/kg/injection, schedule: Q01DX005 (ip), vehicle: saline with Tween-80.
Where [16] appears, read: dose: 240.0 mg/kg/injection, schedule: Q01DX005 (ip), vehicle: saline with Tween-80.

Take `NC(=O)Oc1cccc(OC(N)=O)c1`: the T/C was 103 % of control under setting [1]; 111 % of control under setting [2]; 95 % of control under setting [3]; 113 % of control (dose: 100.0 mg/kg/injection, schedule: Q01DX009 (ip), vehicle: other); 113 % of control (dose: 200.0 mg/kg/injection, schedule: Q01DX009 (ip), vehicle: other); 98 % of control (dose: 200.0 mg/kg/injection, schedule: Q04DX003 (ip), vehicle: other).

Turning to `CC1(C)OC2CC(=O)OCC23C1CC(=O)C1(C)C2=CC(=O)OC(c4ccoc4)C2(C)CCC13` (stereo not drawn), the T/C is, setting by setting: (dose: 0.5 mg/kg/injection, schedule: Q01DX009 (ip), vehicle: saline + alcohol) 106 % of control; (dose: 1.0 mg/kg/injection, schedule: Q01DX009 (ip), vehicle: saline + alcohol) 108 % of control; (dose: 2.0 mg/kg/injection, schedule: Q01DX009 (ip), vehicle: saline + alcohol) 101 % of control; (dose: 4.0 mg/kg/injection, schedule: Q01DX009 (ip), vehicle: saline + alcohol) 105 % of control.

Consider `CCC(C)NS(=O)(=O)c1ccccc1C(=O)OC` (stereo not drawn), for which the T/C runs as follows: under setting [4], 99 % of control; under setting [5], 99 % of control; under setting [6], 97 % of control.

Regarding `CCN1COc2ccc3ccc4c(c3c2C1)CN(CC)CO4`, the T/C runs as follows: under setting [4], 101 % of control; under setting [5], 101 % of control; under setting [6], 102 % of control.

With `CCN(CC)c1ccc2cc(S(=O)(=O)c3ccc(Cl)cc3)c(=O)oc2c1`, the T/C was 86 % of control under setting [7] and 92 % of control under setting [8].

As for `CC12CC(=O)NC(=O)N1CCS2` (stereo not drawn), the T/C under setting [9] is 106 % of control, the T/C under setting [10] is 100 % of control and the T/C under setting [11] is 92 % of control.

With `O=NN(CCCl)C(=O)NC1CCN(Cc2ccccc2)CC1`, the T/C reads like this: (dose: 12.5 mg/kg/injection, schedule: Q04DX003 (ip), vehicle: other) 154 % of control; (dose: 12.5 mg/kg/injection, schedule: Q04DX003 (ip), vehicle: water) 184 % of control; (dose: 25.0 mg/kg/injection, schedule: Q04DX003 (ip), vehicle: other) 183 % of control; (dose: 25.0 mg/kg/injection, schedule: Q04DX003 (ip), vehicle: water) 225 % of control; under setting [3], 287 % of control; (dose: 50.0 mg/kg/injection, schedule: Q04DX003 (ip), vehicle: water) 281 % of control. The T/C (dose: 100.0 mg/kg/injection, schedule: Q04DX003 (ip), vehicle: other) was 361 % of control.

With `C=CC1(OC)CC1CO` (stereo not drawn), the T/C runs as follows: (dose: 25.0 mg/kg/injection, schedule: Q01DX001 (ip), vehicle: Klucel (hydroxypropylcellulose) (HPC)) 99 % of control; (dose: 50.0 mg/kg/injection, schedule: Q01DX001 (ip), vehicle: Klucel (hydroxypropylcellulose) (HPC)) 102 % of control; under setting [12], 91 % of control and 93 % of control; under setting [13], 95 % of control.

For the molecule `COc1ccccc1NC(=O)CC(=O)N1N=C(N(c2ccccc2)c2ccccc2)CC1c1ccccc1` (stereo not drawn), the T/C under setting [14] was 108 % of control, the T/C under setting [15] was 107 % of control and the T/C under setting [16] is 96 % of control.

On to `OCC1OC2NC(=S)OC2C1O` (stereo not drawn), for which the T/C is 100 % of control (dose: 50.0 mg/kg/injection, schedule: Q01DX009 (ip), vehicle: saline); 100 % of control (dose: 100.0 mg/kg/injection, schedule: Q01DX009 (ip), vehicle: saline); 95 % of control (dose: 200.0 mg/kg/injection, schedule: Q01DX009 (ip), vehicle: saline).

In the case of `NC(=O)N/N=c1/oc2ccccc2cc1C(N)=O`, the T/C is 98 % of control (dose: 100.0 mg/kg/injection, schedule: Q04DX002 (ip), vehicle: saline); 98 % of control (dose: 200.0 mg/kg/injection, schedule: Q04DX002 (ip), vehicle: saline); 96 % of control (dose: 400.0 mg/kg/injection, schedule: Q04DX002 (ip), vehicle: saline).

Consider `COc1cccc(OCC(=O)O)c1OC`, for which the T/C was 98 % of control under setting [12] and 97 % of control under setting [13].

For the molecule `COc1nc(NC2OC(COC(C)=O)C(OC(C)=O)C(OC(C)=O)C2OC(C)=O)c(N=C(C)C(C)=O)c(=O)n1C` (stereo not drawn), the T/C is, setting by setting: under setting [14], 99 % of control; under setting [15], 95 % of control; under setting [16], 95 % of control.

Regarding `O=[N+](N=c1ccn([O-])cc1)c1cc[n+]([O-])cc1`, the T/C by setting is: (dose: 1.56 mg/kg/injection, schedule: Q01DX009 (ip), vehicle: DMSO) 107 % of control; (dose: 3.0 mg/kg/injection, schedule: Q01DX009 (ip), vehicle: other) 107 % of control; (dose: 3.12 mg/kg/injection, schedule: Q01DX009 (ip), vehicle: DMSO) 100 % of control; (dose: 6.0 mg/kg/injection, schedule: Q01DX009 (ip), vehicle: other) 102 % of control; (dose: 6.25 mg/kg/injection, schedule: Q01DX009 (ip), vehicle: DMSO) 107 % of control; (dose: 12.5 mg/kg/injection, schedule: Q01DX009 (ip), vehicle: DMSO) 100 % of control. In addition, the T/C was 98 % of control (dose: 12.5 mg/kg/injection, schedule: Q01DX009 (ip), vehicle: other); 100 % of control (dose: 25.0 mg/kg/injection, schedule: Q01DX009 (ip), vehicle: DMSO); 109 % of control under setting [1]; 109 % of control under setting [2].

As to `CN1CCc2[nH]nc(-c3n[nH]c4c3CN(C)CC4)c2C1`, the T/C is, setting by setting: (dose: 60.0 mg/kg/injection, schedule: Q01DX005 (ip), vehicle: saline) 100 % of control; (dose: 120.0 mg/kg/injection, schedule: Q01DX005 (ip), vehicle: saline) 86 % of control; (dose: 240.0 mg/kg/injection, schedule: Q01DX005 (ip), vehicle: saline) 93 % of control.

As to `C=C1CC2(CC(C(C)C)CCC2C)OC1=O` (stereo not drawn), the T/C runs as follows: (dose: 100.0 mg/kg/injection, schedule: Q01DX001 (ip), vehicle: saline) 105 % of control; (dose: 200.0 mg/kg/injection, schedule: Q01DX001 (ip), vehicle: saline) 100 % of control; (dose: 400.0 mg/kg/injection, schedule: Q01DX001 (ip), vehicle: saline) 105 % of control.

Turning to `Cc1c(C)[n+](=O)c2ccc(/C=[N+](/[O-])CCO)cc2n1[O-]`, the T/C is, setting by setting: under setting [9], 99 % of control; under setting [10], 99 % of control; under setting [11], 107 % of control.

As to `Cc1ccc(S(=O)(=O)NCCN(C)C)cc1`, the T/C by setting is: under setting [9], 99 % of control; under setting [10], 99 % of control; under setting [11], 102 % of control; (dose: 400.0 mg/kg/injection, schedule: Q01DX009 (ip), vehicle: Klucel (hydroxypropylcellulose) (HPC)) 101 % of control.

Regarding `COC(=O)C(Cc1ccccc1)NC(=O)C(Cc1c[nH]c2ccccc12)NC(=O)OC(C)(C)C` (stereo not drawn), the T/C was 95 % of control under setting [9], 87 % of control under setting [10] and 108 % of control under setting [11].

With `O=C(O)CCCCC=C(c1ccccc1)c1ccccc1`, the T/C is, setting by setting: (dose: 50.0 mg/kg/injection, schedule: Q01DX005 (ip), vehicle: saline + Tween-80 + alcohol) 101 % of control; (dose: 100.0 mg/kg/injection, schedule: Q01DX005 (ip), vehicle: saline + Tween-80 + alcohol) 102 % of control; (dose: 200.0 mg/kg/injection, schedule: Q01DX005 (ip), vehicle: saline + Tween-80 + alcohol) 101 % of control.

With `Cc1nc2ccccc2c(=O)n1/N=C1/C(=O)Nc2ccc(Br)cc21`, the T/C (dose: 12.5 mg/kg/injection, schedule: Q01DX005 (ip), vehicle: Klucel (hydroxypropylcellulose) (HPC)) is 96 % of control; the T/C (dose: 25.0 mg/kg/injection, schedule: Q01DX005 (ip), vehicle: Klucel (hydroxypropylcellulose) (HPC)) was 96 % of control; the T/C under setting [4] is 88 % of control and 90 % of control; the T/C under setting [5] was 91 % of control; the T/C under setting [6] was 104 % of control.

Regarding `CCOC(=O)C1(C(O)(C2CC2)C2(C(=O)OCC)CC2)CC1`, the T/C was 100 % of control under setting [7]; 102 % of control under setting [8]; 100 % of control (dose: 200.0 mg/kg/injection, schedule: Q01DX005 (ip), vehicle: saline with Tween-80).
